ChEMBL document CHEMBL1130264 (J Med Chem, 1997)

Tests used:
[1] = target: Neuronal acetylcholine receptor; test: Compound was evaluated for functional potency and efficacy at rat Nicotinic acetylcholine receptor in PC12 cells (ganglionic); assay type: cell-based; conditions: pc-12
[2] = target: T1, Neuronal acetylcholine receptor subunit alpha-7 (Rattus norvegicus, UniProt Q05941); test: Binding potency for Nicotinic acetylcholine receptor alpha-7 (rat brain)
[3] = species on record: Rattus norvegicus; test: Compound was evaluated for functional potencies and efficacies at rat nAChR subtype DA release; assay type: organism-based
[4] = target: T2, Neuronal acetylcholine receptor; alpha4/beta2 (Rattus norvegicus, UniProt P09483+P12390); test: Compound was evaluated for functional potencies and efficacies at rat Nicotinic acetylcholine receptor alpha4-beta2; assay type: protein-complex assay
T2 sequence (P09483 whole entry): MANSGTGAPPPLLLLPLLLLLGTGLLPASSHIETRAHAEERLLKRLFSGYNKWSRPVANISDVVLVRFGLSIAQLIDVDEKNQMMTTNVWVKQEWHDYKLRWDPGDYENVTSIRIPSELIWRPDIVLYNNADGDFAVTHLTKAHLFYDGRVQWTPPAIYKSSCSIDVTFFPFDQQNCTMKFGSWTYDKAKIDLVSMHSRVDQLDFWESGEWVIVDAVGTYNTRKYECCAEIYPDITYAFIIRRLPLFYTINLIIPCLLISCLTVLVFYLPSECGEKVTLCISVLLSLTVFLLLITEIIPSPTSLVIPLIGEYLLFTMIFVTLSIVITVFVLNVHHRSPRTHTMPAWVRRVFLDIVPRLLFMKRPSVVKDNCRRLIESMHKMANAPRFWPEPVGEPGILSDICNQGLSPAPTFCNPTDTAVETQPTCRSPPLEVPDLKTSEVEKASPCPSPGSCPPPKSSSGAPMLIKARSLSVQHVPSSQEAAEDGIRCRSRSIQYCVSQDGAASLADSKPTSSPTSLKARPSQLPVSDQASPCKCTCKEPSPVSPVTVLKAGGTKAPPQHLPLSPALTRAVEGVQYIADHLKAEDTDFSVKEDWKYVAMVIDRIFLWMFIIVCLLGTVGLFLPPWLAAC
T2 sequence (P12390 whole entry): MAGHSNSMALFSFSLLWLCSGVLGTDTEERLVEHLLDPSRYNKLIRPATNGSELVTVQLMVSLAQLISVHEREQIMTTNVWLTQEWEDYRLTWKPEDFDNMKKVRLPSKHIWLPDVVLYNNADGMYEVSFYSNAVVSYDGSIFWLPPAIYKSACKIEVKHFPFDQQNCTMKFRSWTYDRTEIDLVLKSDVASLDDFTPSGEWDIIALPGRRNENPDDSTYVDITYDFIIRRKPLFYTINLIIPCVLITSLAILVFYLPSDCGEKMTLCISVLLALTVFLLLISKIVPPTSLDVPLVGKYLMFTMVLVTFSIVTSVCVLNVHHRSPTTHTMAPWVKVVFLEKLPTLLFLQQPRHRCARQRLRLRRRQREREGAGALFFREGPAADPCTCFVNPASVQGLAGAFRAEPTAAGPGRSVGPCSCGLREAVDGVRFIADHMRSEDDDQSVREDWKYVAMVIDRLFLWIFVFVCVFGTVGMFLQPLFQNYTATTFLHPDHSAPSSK

[5] = target: T3, Neuronal acetylcholine receptor subunit alpha-7 (Homo sapiens, UniProt P36544); test: Compound was evaluated for functional potencies and efficacies at human Nicotinic acetylcholine receptor alpha7
T3 sequence (P36544 whole entry): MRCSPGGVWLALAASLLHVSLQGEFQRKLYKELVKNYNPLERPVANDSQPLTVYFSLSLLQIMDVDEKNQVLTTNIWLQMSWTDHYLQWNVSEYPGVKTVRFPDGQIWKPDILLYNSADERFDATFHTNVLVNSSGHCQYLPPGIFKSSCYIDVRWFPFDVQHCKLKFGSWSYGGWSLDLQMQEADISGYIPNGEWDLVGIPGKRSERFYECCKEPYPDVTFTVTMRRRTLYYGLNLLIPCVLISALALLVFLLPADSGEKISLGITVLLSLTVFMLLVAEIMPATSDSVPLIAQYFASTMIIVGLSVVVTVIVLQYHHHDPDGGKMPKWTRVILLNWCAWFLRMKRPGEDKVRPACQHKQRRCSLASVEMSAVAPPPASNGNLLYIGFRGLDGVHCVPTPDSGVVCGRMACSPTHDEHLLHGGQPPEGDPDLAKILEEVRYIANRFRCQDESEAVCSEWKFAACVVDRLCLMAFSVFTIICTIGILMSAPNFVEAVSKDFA

[6] = target: T2, Neuronal acetylcholine receptor; alpha4/beta2; test: Binding potency for Nicotinic acetylcholine receptor alpha4-beta2 (rat brain)
[7] = target: T2, Neuronal acetylcholine receptor; alpha4/beta2; test: Functional potency for Nicotinic acetylcholine receptor alpha4-beta2 (rat brain)
[8] = target: T1, Neuronal acetylcholine receptor subunit alpha-7; test: Functional potency for Nicotinic acetylcholine receptor alpha-7 (rat brain)
[9] = species on record: Rattus norvegicus; test: compound was evaluated for functional potencies and efficacies at rat nAChR subtype DA release; assay type: organism-based
[10] = target: T4, Neuronal acetylcholine receptor; alpha4/beta2 (Homo sapiens, UniProt P17787+P43681); test: Compound was evaluated for functional potencies and efficacies at human Nicotinic acetylcholine receptor alpha4-beta2; assay type: protein-complex assay
T4 sequence (P17787 whole entry): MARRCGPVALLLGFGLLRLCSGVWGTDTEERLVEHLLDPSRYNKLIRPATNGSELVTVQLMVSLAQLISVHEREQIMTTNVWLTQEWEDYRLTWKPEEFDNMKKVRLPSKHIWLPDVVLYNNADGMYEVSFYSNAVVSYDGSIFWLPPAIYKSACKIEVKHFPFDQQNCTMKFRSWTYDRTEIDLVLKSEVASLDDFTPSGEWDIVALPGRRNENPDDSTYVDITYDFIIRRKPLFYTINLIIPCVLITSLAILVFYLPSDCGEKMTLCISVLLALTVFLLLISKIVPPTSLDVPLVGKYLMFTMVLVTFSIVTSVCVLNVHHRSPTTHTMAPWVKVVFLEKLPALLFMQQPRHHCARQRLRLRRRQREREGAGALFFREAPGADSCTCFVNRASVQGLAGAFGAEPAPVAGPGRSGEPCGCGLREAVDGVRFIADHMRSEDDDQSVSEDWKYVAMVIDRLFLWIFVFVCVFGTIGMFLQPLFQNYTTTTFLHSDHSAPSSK
T4 sequence (P43681 whole entry): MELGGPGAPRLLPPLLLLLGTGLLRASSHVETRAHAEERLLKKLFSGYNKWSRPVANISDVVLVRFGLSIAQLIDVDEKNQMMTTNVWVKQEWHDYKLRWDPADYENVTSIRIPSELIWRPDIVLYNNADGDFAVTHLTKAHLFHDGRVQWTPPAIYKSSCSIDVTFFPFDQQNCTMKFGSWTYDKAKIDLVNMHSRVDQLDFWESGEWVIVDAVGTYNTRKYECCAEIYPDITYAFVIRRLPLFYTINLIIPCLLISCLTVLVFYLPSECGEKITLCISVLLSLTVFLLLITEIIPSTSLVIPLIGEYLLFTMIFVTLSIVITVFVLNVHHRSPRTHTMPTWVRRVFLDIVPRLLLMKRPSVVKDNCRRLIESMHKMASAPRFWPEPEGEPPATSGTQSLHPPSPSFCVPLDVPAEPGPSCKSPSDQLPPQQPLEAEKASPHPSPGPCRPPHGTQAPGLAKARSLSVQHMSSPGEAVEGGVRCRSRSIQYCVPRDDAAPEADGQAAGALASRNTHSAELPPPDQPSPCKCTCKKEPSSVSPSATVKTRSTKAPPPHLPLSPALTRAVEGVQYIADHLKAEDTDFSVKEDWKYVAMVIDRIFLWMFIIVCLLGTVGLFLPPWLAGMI

[11] = target: Neuronal acetylcholine receptor; alpha3/beta4 (Homo sapiens, UniProt P30926+P32297); test: Compound was evaluated for functional potencies and efficacies at human Nicotinic acetylcholine receptor subtype IMR-32 (ganglionic); assay type: protein-complex assay
Neuronal acetylcholine receptor; alpha3/beta4, sequence (P30926 whole entry): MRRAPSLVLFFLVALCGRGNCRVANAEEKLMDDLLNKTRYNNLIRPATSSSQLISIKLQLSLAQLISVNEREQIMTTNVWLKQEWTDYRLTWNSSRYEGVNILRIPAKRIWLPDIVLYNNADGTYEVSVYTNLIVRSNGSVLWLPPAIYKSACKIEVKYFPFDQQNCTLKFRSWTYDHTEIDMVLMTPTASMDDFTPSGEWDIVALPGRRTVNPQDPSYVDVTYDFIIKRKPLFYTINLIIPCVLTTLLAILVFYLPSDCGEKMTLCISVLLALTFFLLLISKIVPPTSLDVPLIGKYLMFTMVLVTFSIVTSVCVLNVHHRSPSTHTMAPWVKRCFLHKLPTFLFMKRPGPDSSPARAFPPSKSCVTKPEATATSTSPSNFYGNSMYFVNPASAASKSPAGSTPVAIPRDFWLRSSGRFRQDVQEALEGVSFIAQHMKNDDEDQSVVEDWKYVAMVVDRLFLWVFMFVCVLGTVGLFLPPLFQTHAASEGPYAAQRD
Neuronal acetylcholine receptor; alpha3/beta4, sequence (P32297 whole entry): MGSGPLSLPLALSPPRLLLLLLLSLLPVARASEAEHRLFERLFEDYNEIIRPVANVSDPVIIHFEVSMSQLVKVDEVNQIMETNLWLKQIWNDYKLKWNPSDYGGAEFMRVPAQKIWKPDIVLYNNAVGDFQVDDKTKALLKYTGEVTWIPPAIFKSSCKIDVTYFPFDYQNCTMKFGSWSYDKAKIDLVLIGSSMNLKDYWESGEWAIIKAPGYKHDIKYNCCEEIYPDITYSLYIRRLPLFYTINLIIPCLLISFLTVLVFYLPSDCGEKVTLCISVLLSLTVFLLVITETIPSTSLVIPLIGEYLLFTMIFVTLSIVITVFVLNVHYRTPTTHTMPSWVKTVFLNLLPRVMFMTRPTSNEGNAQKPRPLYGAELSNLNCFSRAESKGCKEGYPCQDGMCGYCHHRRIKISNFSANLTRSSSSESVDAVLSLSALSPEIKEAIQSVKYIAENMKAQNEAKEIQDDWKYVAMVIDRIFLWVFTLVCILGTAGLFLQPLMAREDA

[12] = target: T5, Neuronal acetylcholine receptor (Rattus norvegicus) (UniProt P04757+P09483+P12389+P12390+P12392+P43144+Q9JLB5+P12391+P43143+P20420+Q05941); test: Compound was evaluated for functional potency and efficacy at rat Nicotinic acetylcholine receptor subtype DA release at 1 uM
[13] = target: T5, Neuronal acetylcholine receptor (Rattus norvegicus); test: compound was evaluated for functional potency and efficacy at rat Nicotinic acetylcholine receptor subtype DA release at 10 uM
[14] = target: T6, Acetylcholine receptor (Torpedo californica, UniProt P02710+P02712+P02714+P02718); test: Functional potency for nAChR subtype Alpha1-beta1 delta gamma (torpedo); assay type: protein-complex assay
[15] = target: T6, Acetylcholine receptor; test: Binding potency for nAChR subtype Alpha-1-beta-1-delta gamma(torpedo); assay type: protein-complex assay
[16] = target: Neuronal acetylcholine receptor; test: Compound was evaluated for functional potencies and efficacies at rat Nicotinic acetylcholine receptor subtype PC12 (ganglionic); assay type: cell-based; conditions: pc-12
[17] = target: T3, Neuronal acetylcholine receptor subunit alpha-7; test: Compound was evaluated for functional potencies and efficacies at human Nicotinic acetylcholine receptor alpha7; low efficacy
[18] = target: T2, Neuronal acetylcholine receptor; alpha4/beta2; test: Compound was evaluated for functional potencies and efficacies at rat Recombinant Nicotinic acetylcholine receptor alpha4-beta2; low efficacy; assay type: protein-complex assay
[19] = target: T4, Neuronal acetylcholine receptor; alpha4/beta2; test: Compound was evaluated for functional potencies and efficacies at human Nicotinic acetylcholine receptor alpha4-beta2; low efficacy; assay type: protein-complex assay
[20] = target: T3, Neuronal acetylcholine receptor subunit alpha-7; test: Ability to block activation of acetylcholine-stimulated currents in human alpha-7 homomers expressed in oocytes; assay type: functional, cell-based, Oocyte
[21] = target: Muscle-type nicotinic acetylcholine receptor; test: Compound was evaluated for functional potencies and efficacies at human muscle type Nicotinic acetylcholine receptor in TE671 cells; assay type: cell-based; conditions: te-671
[22] = target: T6, Acetylcholine receptor
[23] = target: T6, Acetylcholine receptor; remark: listed apart in the source
[24] = target: T3, Neuronal acetylcholine receptor subunit alpha-7; test: (§1) Affinity for Nicotinic acetylcholine receptor alpha7
[25] = target: T1, Neuronal acetylcholine receptor subunit alpha-7; test: as §1
[26] = tested on: TE-671; test: Stimulation of ion flux in TE671 cells; assay type: functional, cell-based; conditions: Homo sapiens

T1 sequence (Q05941 whole entry): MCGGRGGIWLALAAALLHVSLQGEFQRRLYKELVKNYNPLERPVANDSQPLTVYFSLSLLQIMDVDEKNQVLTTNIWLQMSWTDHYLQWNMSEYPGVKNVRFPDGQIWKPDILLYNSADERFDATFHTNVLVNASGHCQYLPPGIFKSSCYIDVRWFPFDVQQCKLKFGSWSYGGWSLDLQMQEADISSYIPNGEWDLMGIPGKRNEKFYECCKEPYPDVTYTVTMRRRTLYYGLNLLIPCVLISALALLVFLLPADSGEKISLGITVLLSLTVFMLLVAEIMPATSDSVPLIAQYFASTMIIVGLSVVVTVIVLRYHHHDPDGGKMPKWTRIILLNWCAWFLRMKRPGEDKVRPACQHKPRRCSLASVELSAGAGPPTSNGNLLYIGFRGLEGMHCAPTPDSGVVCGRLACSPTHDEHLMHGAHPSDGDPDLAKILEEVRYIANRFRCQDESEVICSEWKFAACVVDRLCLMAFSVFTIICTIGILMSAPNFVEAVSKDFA

CC(=O)C1=CC[N+](C)(C)CC1
EC50 [1]: 100 µM

CO[C@@H]1CC=C2CCN3CCC4=C(CC(=O)OC4)[C@@]23C1
Ki [2]: 0.148 µM
EC50 [3]: 0.03 µM
EC50 [4]: 0.37 µM
EC50 [5]: 19.6 µM
Ki [6]: 0.04 nM
EC50 [7]: 0.7 µM
EC50 [8]: 8.9 µM

c1cncc(OC[C@@H]2CCN2)c1
EC50 [9]: 0.003 µM
EC50 [5]: 8.9 µM
EC50 [10]: 0.7 µM
EC50 ([11]; read-out: EC50): 0.7 µM

CN1CCC[C@H]1COc1cccnc1
Potency [12]: 55%
Potency [13]: 90%

Clc1ccc(C2CC3CCC2N3)cn1 (racemic) [EPIBATIDINE]
EC50 [3]: 0.037 µM
EC50 [5]: 3.5 µM

Cc1cc([C@@H]2CCCN2C)on1 [ABT-418]
Ki [2]: > 10 µM
EC50 [3]: 0.38 µM
EC50 [4]: 6 µM
EC50 [5]: 264 µM
EC50 [14]: 411 µM
Ki [6]: 7.89 nM
Ki [15]: > 10 µM
EC50 ([11]; read-out: EC50): 64 µM
EC50 [7]: 10 µM
EC50 [8]: 264 µM

O=c1cccc2n1C[C@@H]1CNC[C@H]2C1 [CYTISINICLINE]
EC50 [16]: 10 µM
EC50 [3]: 0.06 µM
EC50 [5]: 71 µM
EC50 [10]: 38 µM
EC50 ([11]; read-out: EC50): 26 µM

C[N+]1(C)CCN(c2ccccc2)CC1 [DIMETHYLPHENYLPIPERAZINIUM]
EC50 [3]: 4.3 µM
EC50 [5]: 95 µM
EC50 [10]: 2.5 µM

COc1ccc(/C=C2\CCCN=C2c2cccnc2)c(OC)c1 [GTS-21]
EC50 [17]: Low efficacy
EC50 [18]: Low efficacy
EC50 [3]: 10 µM
EC50 [19]: Low efficacy
EC50 [11]: Low efficacy

CNC1(C)C2CCC(C2)C1(C)C (centres undefined) [MECAMYLAMINE]
IC50 [20]: 1.8 µM
EC50 [21]: 30 µM

CN1CCC[C@H]1c1cccnc1 [NICOTINE]
Ki [22]: > 10 µM
EC50 [23]: 60 µM
EC50 [3]: 0.04 µM

Cc1ncccc1OC[C@@H]1CCCN1 [POZANICLINE]
EC50 [17]: Low efficacy
EC50 [3]: 1.1 µM
Ki [24]: > 10 µM
EC50 [19]: Low efficacy
EC50 [11]: Low efficacy

CNCC/C=C/c1cccnc1 [RIVANICLINE]
EC50 [3]: 0.94 µM
EC50 [10]: 4.3 µM
Ki [25]: 36 µM
EC50 ([11]; read-out: EC50): 46 µM

C[N+](C)(C)CCOC(=O)CCC(=O)OCC[N+](C)(C)C [SUXAMETHONIUM]
EC50 [26]: 30 µM
